Values joined by “and” are separate entries in the source; they are usually repeats but may differ in a detail not shown here. Equal entries are not always repeated. Toxic doses and inconclusive results are not listed. Rule for the calls: active = survival T/C of 150% or more; inactive = T/C below 125% in these data.
Tested on: BDF1 mice, L1210 leukemia sc, survival T/C
Assay: NCI In Vivo Anticancer Drug Screen. Data for tumor model L1210 Leukemia (subcutaneous) in B6D2F1 (BDF1) mice
Conditions: endpoint: median survival time, higher = longer survival
Procedure, shortened: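 Mice carrying transplanted tumors received test compounds, and survival or tumor size was measured. Values are the treated-group measurement (T) divided by that of the vehicle-treated control group (C).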

Measured: T/C

O=C(Nc1ccc(C2=NCCN2)cc1)c1ccc(C(=O)Nc2ccc(C3=NCCN3)cc2)c(Cl)c1
inactive: dose: 0.19 mg/kg/injection, schedule: Q01DX Z (iv), vehicle: water 100 % of control | dose: 0.38 mg/kg/injection, schedule: Q01DX Z (iv), vehicle: water 100 % of control | dose: 0.75 mg/kg/injection, schedule: Q01DX Z (iv), vehicle: water 90 % of control | dose: 1.3 mg/kg/injection, schedule: Q01DX Z (ip), vehicle: water 95 % of control | dose: 1.5 mg/kg/injection, schedule: Q01DX Z (iv), vehicle: water 95 % of control | dose: 2.16 mg/kg/injection, schedule: Q01DX Z (ip), vehicle: water 100 % of control | dose: 2.16 mg/kg/injection, schedule: Q01DX Z (sc), vehicle: water 95 % of control | dose: 2.5 mg/kg/injection, schedule: Q01DX Z (sc), vehicle: methylcellulose (MC) 111 % of control | dose: 3.0 mg/kg/injection, schedule: Q01DX Z (ip), vehicle: water 100 % of control | dose: 3.0 mg/kg/injection, schedule: Q01DX Z (iv), vehicle: water 100 % of control | dose: 3.0 mg/kg/injection, schedule: Q01DX Z (sc), vehicle: saline 100 % of control and 104 % of control | dose: 3.6 mg/kg/injection, schedule: Q01DX Z (ip), vehicle: water 90 % of control | dose: 3.6 mg/kg/injection, schedule: Q01DX Z (sc), vehicle: water 100 % of control | dose: 5.0 mg/kg/injection, schedule: Q01DX Z (ip), vehicle: water 100 % of control | dose: 5.0 mg/kg/injection, schedule: Q01DX Z (sc), vehicle: methylcellulose (MC) 116 % of control | dose: 5.0 mg/kg/injection, schedule: Q01DX Z (sc), vehicle: saline 100 % of control | dose: 5.0 mg/kg/injection, schedule: Q01DX Z (sc), vehicle: water 110 % of control and 111 % of control | dose: 6.0 mg/kg/injection, schedule: Q01DX Z (ip), vehicle: water 95 % of control | dose: 6.0 mg/kg/injection, schedule: Q01DX Z (iv), vehicle: water 100 % of control | dose: 6.0 mg/kg/injection, schedule: Q01DX Z (sc), vehicle: water 100 % of control | dose: 8.4 mg/kg/injection, schedule: Q01DX Z (sc), vehicle: saline 109 % of control and 110 % of control and 122 % of control | dose: 10.0 mg/kg/injection, schedule: Q01DX Z (ip), vehicle: water 105 % of control | dose: 14.0 mg/kg/injection, schedule: Q02DX Z (sc), vehicle: saline 100 % of control | dose: 17.0 mg/kg/injection, schedule: Q01DX001 (ip), vehicle: water 100 % of control | dose: 23.0 mg/kg/injection, schedule: Q02DX Z (sc), vehicle: saline 110 % of control | dose: 23.0 mg/kg/injection, schedule: Q## X Z (sc), vehicle: saline 110 % of control | dose: 28.0 mg/kg/injection, schedule: Q01DX001 (ip), vehicle: water 100 % of control | dose: 40.0 mg/kg/injection, schedule: Q01DX001 (sc), vehicle: methylcellulose (MC) 111 % of control | dose: 47.0 mg/kg/injection, schedule: Q01DX001 (ip), vehicle: water 100 % of control | dose: 78.0 mg/kg/injection, schedule: Q01DX001 (ip), vehicle: water 100 % of control | dose: 78.0 mg/kg/injection, schedule: Q01DX001 (sc), vehicle: water 100 % of control | dose: 80.0 mg/kg/injection, schedule: Q01DX001 (sc), vehicle: methylcellulose (MC) 116 % of control | dose: 80.0 mg/kg/injection, schedule: Q01DX Z (sc), vehicle: methylcellulose (MC) 111 % of control | dose: 130.0 mg/kg/injection, schedule: Q01DX001 (ip), vehicle: water 105 % of control | dose: 130.0 mg/kg/injection, schedule: Q01DX001 (sc), vehicle: water 110 % of control | dose: 180.0 mg/kg/injection, schedule: Q01DX Z (sc), vehicle: other 115 % of control | dose: 300.0 mg/kg/injection, schedule: Q01DX Z (sc), vehicle: other 90 % of control | dose: 300.0 mg/kg/injection, schedule: Q01DX Z (sc), vehicle: water 105 % of control
active: dose: 8.4 mg/kg/injection, schedule: Q01DX Z (ip), vehicle: water 160 % of control | dose: 8.4 mg/kg/injection, schedule: Q01DX Z (sc), vehicle: water 170 % of control | dose: 10.0 mg/kg/injection, schedule: Q01DX Z (sc), vehicle: methylcellulose (MC) 244 % of control | dose: 12.0 mg/kg/injection, schedule: Q01DX Z (sc), vehicle: water 181 % of control | dose: 14.0 mg/kg/injection, schedule: Q01DX Z (ip), vehicle: water 160 % of control | dose: 14.0 mg/kg/injection, schedule: Q01DX Z (sc), vehicle: saline 210 % of control | dose: 14.0 mg/kg/injection, schedule: Q01DX Z (sc), vehicle: water 190 % of control and 170 % of control | dose: 17.0 mg/kg/injection, schedule: Q01DX Z (sc), vehicle: water 210 % of control | dose: 20.0 mg/kg/injection, schedule: Q01DX Z (sc), vehicle: methylcellulose (MC) 244 % of control | dose: 20.0 mg/kg/injection, schedule: Q01DX Z (sc), vehicle: water 244 % of control | dose: 23.0 mg/kg/injection, schedule: Q01DX Z (ip), vehicle: water 180 % of control | dose: 23.0 mg/kg/injection, schedule: Q01DX Z (sc), vehicle: other 210 % of control | dose: 23.0 mg/kg/injection, schedule: Q01DX Z (sc), vehicle: saline 195 % of control and 200 % of control | dose: 23.0 mg/kg/injection, schedule: Q01DX Z (sc), vehicle: water 210 % of control and 240 % of control and 170 % of control | dose: 24.0 mg/kg/injection, schedule: Q01DX Z (sc), vehicle: water 200 % of control | dose: 28.0 mg/kg/injection, schedule: Q01DX Z (ip), vehicle: water 205 % of control | dose: 28.0 mg/kg/injection, schedule: Q01DX Z (sc), vehicle: water 190 % of control | dose: 39.0 mg/kg/injection, schedule: Q01DX Z (sc), vehicle: other 200 % of control | dose: 39.0 mg/kg/injection, schedule: Q01DX Z (sc), vehicle: saline 180 % of control and 185 % of control and 195 % of control | dose: 39.0 mg/kg/injection, schedule: Q01DX Z (sc), vehicle: water 210 % of control and 195 % of control | dose: 39.0 mg/kg/injection, schedule: Q## X Z (sc), vehicle: saline 170 % of control | dose: 40.0 mg/kg/injection, schedule: Q01DX Z (sc), vehicle: methylcellulose (MC) 177 % of control | dose: 40.0 mg/kg/injection, schedule: Q01DX Z (sc), vehicle: water 227 % of control | dose: 47.0 mg/kg/injection, schedule: Q01DX Z (sc), vehicle: water 200 % of control | dose: 48.0 mg/kg/injection, schedule: Q01DX Z (sc), vehicle: water 181 % of control | dose: 65.0 mg/kg/injection, schedule: Q01DX Z (sc), vehicle: other 180 % of control | dose: 65.0 mg/kg/injection, schedule: Q01DX Z (sc), vehicle: saline 155 % of control and 163 % of control and 166 % of control | dose: 65.0 mg/kg/injection, schedule: Q01DX Z (sc), vehicle: water 155 % of control and 185 % of control and 170 % of control | dose: 65.0 mg/kg/injection, schedule: Q## X Z (sc), vehicle: saline 200 % of control | dose: 78.0 mg/kg/injection, schedule: Q01DX Z (sc), vehicle: water 170 % of control | dose: 80.0 mg/kg/injection, schedule: Q01DX Z (sc), vehicle: water 155 % of control | dose: 108.0 mg/kg/injection, schedule: Q01DX001 (sc), vehicle: saline 170 % of control | dose: 108.0 mg/kg/injection, schedule: Q01DX Z (sc), vehicle: saline 154 % of control | dose: 108.0 mg/kg/injection, schedule: Q02DX Z (sc), vehicle: saline 200 % of control | dose: 160.0 mg/kg/injection, schedule: Q01DX001 (sc), vehicle: methylcellulose (MC) 166 % of control | dose: 160.0 mg/kg/injection, schedule: Q01DX001 (sc), vehicle: water 161 % of control | dose: 180.0 mg/kg/injection, schedule: Q01DX001 (sc), vehicle: saline 190 % of control | dose: 180.0 mg/kg/injection, schedule: Q02DX Z (sc), vehicle: saline 180 % of control | dose: 300.0 mg/kg/injection, schedule: Q02DX Z (sc), vehicle: saline 170 % of control | dose: 300.0 mg/kg/injection, schedule: Q## X Z (sc), vehicle: saline 205 % of control | dose: 320.0 mg/kg/injection, schedule: Q01DX001 (sc), vehicle: water 222 % of control | dose: 360.0 mg/kg/injection, schedule: Q01DX001 (sc), vehicle: water 155 % of control | dose: 500.0 mg/kg/injection, schedule: Q## X Z (sc), vehicle: saline 200 % of control | dose: 600.0 mg/kg/injection, schedule: Q01DX001 (sc), vehicle: water 150 % of control
120 % of control and 233 % of control: dose: 10.0 mg/kg/injection, schedule: Q01DX Z (sc), vehicle: water
